Consider one compound from ChEMBL document CHEMBL3046287, “Azoxystrobin resistance of French Mycosphaerella graminicola strains assessed by four in vitro bioassays and by screening of G143A substitution” (Crop Prot, 2010).

The structures appear in SMILES notation. Values after ≈ are worked out from the molar mass of the structure shown.

Assay type in all cases: functional, organism-based
Assay [1] has as its system Zymoseptoria tritici. The assay is described as follows: Antifungal activity against azoxystrobin-resistant Zymoseptoria tritici T0242 carrying cytochrome-b A143 allele assessed as inhibition of spore germination after 2 days at 18 degC by spotting on PDA medium assay. Conditions: T0242, 48 h.
The test system of assay [2] is Zymoseptoria tritici. The assay is described as follows: Antifungal activity against azoxystrobin-resistant Zymoseptoria tritici T0451 carrying cytochrome-b A143 allele assessed as inhibition of spore germination after 2 days at 18 degC by spotting on PDA medium assay. Conditions: T0451, 48 h.
Assay [3] relates to Zymoseptoria tritici. The assay is described as follows: Antifungal activity against azoxystrobin-sensitive Zymoseptoria tritici IPO94269 carrying cytochrome-b G143 allele assessed as fungal colony perpendicular diameter changes after 10 days at 18 degC by spotting on PDA medium assay. Conditions: IPO94269, 240 h.
In assay [4] the test system is Zymoseptoria tritici. The assay can be described thus: Antifungal activity against azoxystrobin-sensitive Zymoseptoria tritici T0209 carrying cytochrome-b G143 allele assessed as fungal growth inhibition after 6 days at 20 degC by microplate without alamar blue assay. Conditions: T0209, 144 h.
For assay [5], the system named is Zymoseptoria tritici. The assay can be described thus: Antifungal activity against azoxystrobin-resistant Zymoseptoria tritici T0485 carrying cytochrome-b A143 allele assessed as inhibition of spore germination after 2 days at 18 degC by spotting on PDA medium assay. Conditions: T0485, 48 h.
Assay [6] has as its system Zymoseptoria tritici. The assay can be described thus: Antifungal activity against azoxystrobin-resistant Zymoseptoria tritici T0485 carrying cytochrome-b A143 allele assessed as fungal growth inhibition after 6 days at 20 degC by microplate without alamar blue assay. As to conditions: T0485, 144 h.
Assay [7] has as its system Zymoseptoria tritici. The assay is described as follows: Antifungal activity against azoxystrobin-resistant Zymoseptoria tritici T0251 carrying cytochrome-b A143 allele assessed as fungal growth inhibition after 6 days at 20 degC by microplate without alamar blue assay. Conditions: T0251, 144 h.
The test system of assay [8] is Zymoseptoria tritici. The assay is described as follows: Antifungal activity against azoxystrobin-resistant Zymoseptoria tritici T0290 carrying cytochrome-b A143 allele assessed as fungal growth inhibition after 6 days at 20 degC by microplate without alamar blue assay. As to conditions: T0290, 144 h.
Assay [9] has as its system Zymoseptoria tritici. The assay can be described thus: Antifungal activity against azoxystrobin-sensitive Zymoseptoria tritici T0471 carrying cytochrome-b G143 allele assessed as fungal colony perpendicular diameter changes after 10 days at 18 degC by spotting on PDA medium assay. Conditions: T0471, 240 h.
Assay [10] concerns Zymoseptoria tritici. The assay can be described thus: Antifungal activity against azoxystrobin-resistant Zymoseptoria tritici T055 carrying cytochrome-b A143 allele assessed as fungal colony perpendicular diameter changes after 10 days at 18 degC by spotting on PDA medium assay. Conditions: T055, 240 h.
For assay [11], the system named is Zymoseptoria tritici. The assay is described as follows: Antifungal activity against azoxystrobin-resistant Zymoseptoria tritici T0414 carrying cytochrome-b A143 allele assessed as fungal growth inhibition after 6 days at 20 degC by microplate without alamar blue assay. As to conditions: T0414, 144 h.
The test system of assay [12] is Zymoseptoria tritici. The assay is described as follows: Antifungal activity against azoxystrobin-sensitive Zymoseptoria tritici T0460 carrying cytochrome-b G143 allele assessed as inhibition of spore germination after 2 days at 18 degC by spotting on PDA medium assay. Conditions: T0460, 48 h.

By IC50 is commonly meant the concentration needed to halve the response being measured.

Turning to `CO/C=C(/C(=O)OC)c1ccccc1Oc1cc(Oc2ccccc2C#N)ncn1` [AZOXYSTROBIN], the IC50 in [1] is 18.4 µg/mL (≈ 45.7 µM); in assay [2] it was 29.6 µg/mL (≈ 73.3 µM); in assay [3], 0.1 µg/mL (≈ 0.248 µM); in assay [4] it was 0.01 µg/mL (≈ 0.0248 µM); in [5], 14.6 µg/mL (≈ 36.3 µM); in [6], above 100 µg/mL. In addition, the IC50 is above 100 µg/mL in [7]; above 100 µg/mL in assay [8]; 0.1 µg/mL (≈ 0.248 µM) in [9]; 10.2 µg/mL (≈ 25.2 µM) in assay [10]; above 100 µg/mL in assay [11]; 0.13 µg/mL (≈ 0.322 µM) in assay [12].
